This note sets out measurements from patent US10716859B2, “Excipients for stabilising viral particles, polypeptides or biological material” (priority 2010, dated 2020).

For series [1], the system named is Recombinant adenovirus expressing enhanced GFP. The series is described as follows: Recovered adenoviral activity after 7 days at 4° C. or 37° C. with glycinergics or SMM (Example 4). Format: cell-based. The following applies: one week at 37° C.
A further series deals with white cell fraction. Put plainly: White cell viability in human blood diluted with excipients, Guava Viacount (Example 18). The class given is cell-based. The note with it: equal volume dilution, 25° C. for 30 minutes.
The mark [2] stands for this setting: 0.07 M, sole excipient (no sugars).
[3] abbreviates: 0.07 M, with sugars (1M Sucrose, 100 mM Raffinose).
[4] abbreviates: 0.70 M, sole excipient (no sugars).
Setting [5] is: 0.70 M, with sugars (1M Sucrose, 100 mM Raffinose).

Each structure is given as a SMILES string.

Consider `CN(C)CC(=O)O` [DMG, N,N-Dimethylglycine], for which the recovered viral activity in series [1] (setting [2]) was determined as 27%; in series [1] (setting [3]), 37%; in series [1] (setting [4]), 41%; in series [1] (setting [5]) it was 52%. The “effect on white cell viability in the blood sample” value with white cell fraction was “no adverse effects”.

For the compound `C[S+](C)CC[C@H](N)C(=O)O` [SMM, S-methyl-L-methionine], the recovered viral activity amounted to 33% in series [1] (setting [2]) and 43% in series [1] (0.23 M, sole excipient (no sugars)).

Regarding `C[N+](C)(C)CC(=O)O` [TMG, N,N,N-trimethylglycine], the recovered viral activity is 21% in series [1] (setting [2]), 45% in series [1] (setting [3]), 45% in series [1] (setting [4]) and 38.7% in series [1] (setting [5]).

Regarding `NCC(=O)O` [glycine, Glycine, reference compound], the recovered viral activity is recorded as 29% in series [1] (setting [2]), 41% in series [1] (setting [3]), 45% in series [1] (setting [4]) and 54% in series [1] (setting [5]).

Regarding `CNCC(=O)O` [sarcosine, N-Methyl-glycine], the recovered viral activity in series [1] (setting [2]) was 29%; in series [1] (setting [3]) it was 37%; in series [1] (setting [4]) it was 49%; in series [1] (setting [5]) it was 56%.
